According to patent US20240150334A1, “HSD17B13 INHIBITORS AND/OR DEGRADERS” (Pfizer Inc., priority 2022, published 2024):
Structures can show the parent of a compound that is named as a salt.

What was measured:
wild type human HSD17B13 = wild type human HSD17B13 (Homo sapiens (Human), UniProt Q7Z5P4); experiment: HEK_Beta-Est LCMS_IC50_Tekcel, whole-cell HEK-HSD17B13 inhibition assay, estrone production by LCMS; assay type: cell-based; conditions: geometric mean, HEK cells stably expressing wild type human HSD17B13, 25 μM FAC beta-estradiol, read-out: HEK_Beta-Est LCMS_IC50—Tekcel GMean IC50
How it was run: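 HEK cells expressing wild-type human HSD17B13 were preincubated with compound for 1 hour at 37° C, then the beta-estradiol/NAD+ reaction ran for 2 hours at 37° C. Estrone formed was quantified by LCMS as product area ratio and normalized to uninhibited vehicle-control wells.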

HSD17B13 enzyme = HSD17B13 enzyme (Homo sapiens (Human), UniProt Q7Z5P4); experiment: hHSD17B13 IC50 Assay (FAC beta-estradiol), purified protein enzyme activity assay with NAD(P)H-Glo luciferase readout; assay type: biochemical; conditions: geometric mean, 12 μM FAC beta-estradiol, 500 μM NAD+, read-out: hHSD17B13_IC50 GMean IC50
How it was run: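 Purified human HSD17B13 (30 nM FAC) incubated with compound, beta-estradiol and NAD+ for 2 h at room temperature in the dark. NADH formation was detected by NAD(P)H-Glo luminescence after 1 h. RLUs normalized to uninhibited enzyme (vehicle) as zero effect.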

Chain of HSD17B13 enzyme (Q7Z5P4 20-300): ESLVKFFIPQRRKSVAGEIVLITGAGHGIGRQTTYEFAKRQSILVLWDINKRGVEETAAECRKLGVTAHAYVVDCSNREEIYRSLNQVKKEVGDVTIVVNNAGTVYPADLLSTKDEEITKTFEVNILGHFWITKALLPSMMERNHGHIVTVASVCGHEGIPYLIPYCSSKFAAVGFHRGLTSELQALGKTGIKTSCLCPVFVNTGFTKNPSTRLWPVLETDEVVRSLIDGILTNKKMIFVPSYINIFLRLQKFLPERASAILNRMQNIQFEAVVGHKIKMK
Chain of wild type human HSD17B13 (Q7Z5P4 20-300): as above

Row | Structure (SMILES) | IC50 (wild type human HSD17B13) | IC50 (HSD17B13 enzyme)
1 | O=C(NC[C@]12CC[C@](c3noc(-c4ccc(OS(=O)(=O)F)cc4)n3)(CC1)CC2)c1cc(F)c(O)c(F)c1 [Example 126, 4-(3-{4-[(3,5-difluoro-4-hydroxybenzamido)methyl]bicyclo[2.2.2]octan-1-yl}-1,2,4-oxadiazol-5-yl) phenyl sulfurofluoridate] | 430 nM | 16 nM
2 | COc1cnc(-c2noc([C@H]3CC[C@H](CNC(=O)c4cc(F)c(O)c(F)c4)CC3)n2)cn1 [Example 127, 3,5-difluoro-4-hydroxy-N-({(1r,4r)-4-[3-(5-methoxy-pyrazin-2-yl)-1,2,4-oxadiazol-5-yl]cyclohexyl}methyl) benzamide] | 350 nM | 13 nM
3 | CS(=O)(=O)c1ccc(-c2noc([C@H]3CC[C@H](CNC(=O)c4cc(F)c(O)c(F)c4)CC3)n2)cc1 [Example 128, 3,5-difluoro-4-hydroxy-N-{[(1r,4r)-4-{3-[4-(methanesulfonyl)phenyl]-1,2,4-oxadiazol-5-yl}cyclohexyl]methyl} benzamide] | 400 nM | 16 nM
4 | COc1ccc2nn([C@H]3CC[C@H](CNC(=O)c4cc(F)c(O)c(F)c4)CC3)cc2c1 [Example 129, 3,5-difluoro-4-hydroxy-N-{[(1r,4r)-4-(5-methoxy-2H-indazol-2-yl)cyclohexyl]methyl}benzamide] | 400 nM | 33 nM
5 | Cc1ccc2cn([C@H]3CC[C@H](CNC(=O)c4cc(F)c(O)c(F)c4)CC3)nc2c1 [Example 130, 3,5-difluoro-4-hydroxy-N-{[(1r,4r)-4-(6-methyl-2H-indazol-2-yl)cyclohexyl]methyl}benzamide] | 330 nM | 27 nM
6 | Cc1ccc2nn([C@H]3CC[C@H](CNC(=O)c4cc(F)c(O)c(F)c4)CC3)cc2c1 [Example 131, 3,5-difluoro-4-hydroxy-N-{[(1r,4r)-4-(5-methyl-2H-indazol-2-yl)cyclo-hexyl]methyl} benzamide] | 270 nM | 27 nM
7 | O=C(NC[C@H]1CC[C@H](n2cc3cc(Cl)ccc3n2)CC1)c1cc(F)c(O)c(F)c1 [Example 132, N-{[(1r,4r)-4-(5-chloro-2H-indazol-2-yl)cyclohexyl]methyl}-3,5-difluoro-4-hydroxybenzamide, ammonium salt] | 140 nM | 14 nM
8 | O=C(NC[C@H]1CC[C@H](n2cc3cc(F)ccc3n2)CC1)c1cc(F)c(O)c(F)c1 [Example 133, 3,5-difluoro-N-{[(1r,4r)-4-(5-fluoro-2H-indazol-2-yl)cyclohexyl]methyl}-4-hydroxybenzamide, ammonium salt] | 280 nM | 29 nM
9 | N#Cc1ccc2cn([C@H]3CC[C@H](CNC(=O)c4cc(F)c(O)c(F)c4)CC3)nc2c1 [Example 134, N-{[(1r,4r)-4-(6-cyano-2H-indazol-2-yl)cyclohexyl]methyl}-3,5-difluoro-4-hydroxybenzamide, ammonium salt] | 470 nM | 32 nM
10 | O=C(NC[C@H]1CC[C@H](n2cc3ccc(Cl)cc3n2)CC1)c1cc(F)c(O)c(F)c1 [Example 135, N-{[(1r,4r)-4-(6-chloro-2H-indazol-2-yl)cyclohexyl]methyl}-3,5-difluoro-4-hydroxybenzamide, ammonium salt] | 250 nM | 21 nM
11 | CN1CCN(c2ccc3cn([C@H]4CC[C@H](CNC(=O)c5cc(F)c(O)c(F)c5)CC4)nc3c2)CC1 [Example 136, 3,5-difluoro-4-hydroxy-N-({(1r,4r)-4-[6-(4-methyl-piperazin-1-yl)-2H-indazol-2-yl]cyclohexyl}methyl) benzamide, ammonium salt] | 300 nM | 15 nM
12 | O=C(NC[C@H]1CC[C@H](n2cc3ccc(C(F)(F)F)cc3n2)CC1)c1cc(F)c(O)c(F)c1 [Example 137, 3,5-difluoro-4-hydroxy-N-({(1r,4r)-4-[6-(trifluoromethyl)-2H-indazol-2-yl]cyclohexyl}methyl) benzamide, ammonium salt] | 280 nM | 25 nM
13 | O=C(NC[C@H]1CC[C@H](c2noc(-c3ccccc3)n2)CC1)c1cc(F)c(O)c(F)c1 [Example 138, 3,5-difluoro-4-hydroxy-N-{[(1r,4r)-4-(5-phenyl-1,2,4-oxadiazol-3-yl)cyclohexyl]methyl}benzamide] | 200 nM | 16 nM
14 | O=C(NC[C@H]1CC[C@H](c2nc(-c3cnc(C(F)(F)F)cn3)no2)CC1)c1cc(F)c(O)c(F)c1 [Example 139, 3,5-difluoro-4-hydroxy-N-{[(1r,4r)-4-{3-[5-(trifluoromethyl)pyrazin-2-yl]-1,2,4-oxadiazol-5-yl}cyclohexyl]methyl} benzamide] | 410 nM | 22 nM
15 | O=C(NC[C@]12CC[C@](c3nc(-c4ccc(C(F)(F)F)nc4)no3)(CC1)CC2)c1cc(F)c(O)c(F)c1 [Example 140, 3,5-difluoro-4-hydroxy-N-[(4-{3-[6-(trifluoromethyl)pyridin-3-yl]-1,2,4-oxadiazol-5-yl}bicyclo[2.2.2]octan-1-yl)methyl] benzamide] | 220 nM | 16 nM
16 | O=C(NC[C@]12CC[C@](c3nc4ccccc4o3)(CC1)CC2)c1cc(F)c(O)c(F)c1 [Example 141, N-{[4-(1,3-benzoxazol-2-yl)bicyclo[2.2.2]octan-1-yl]methyl}-3,5-difluoro-4-hydroxybenzamide] | 190 nM | 8.8 nM
17 | O=C(NC[C@]12CC[C@](c3nc(-c4ccc(C(F)F)nc4)no3)(CC1)CC2)c1cc(F)c(O)c(F)c1 [Example 142, N-[(4-{3-[6-(difluoromethyl)pyridin-3-yl]-1,2,4-oxadiazol-5-yl}bicyclo[2.2.2]octan-1-yl)methyl]-3,5-difluoro-4-hydroxybenzamide] | 160 nM | 10 nM
18 | O=C(NC[C@]12CC[C@](c3nc(-c4ccc(C(F)(F)F)nn4)no3)(CC1)CC2)c1cc(F)c(O)c(F)c1 [Example 143, 3,5-difluoro-4-hydroxy-[(4-{3-[6-(trifluoromethyl)pyridazin-3-yl]-1,2,4-oxadiazol-5-yl}bicyclo[2.2.2]octan-1-yl)methyl]benzamide] | 180 nM | 13 nM
19 | O=C(NC[C@H]1CC[C@H](n2cc3ccc(Cl)cc3n2)CC1)c1cc(F)c(O)cc1F [Example 144, N-{[(1r,4r)-4-(6-chloro-2H-indazol-2-yl)cyclohexyl]methyl}-2,5-difluoro-4-hydroxybenzamide, trifluoroacetate salt] | 440 nM | 14 nM
20 | O=C(NC[C@H]1CC[C@H](n2cc3cc(Cl)ccc3n2)CC1)c1cc(F)c(O)cc1F [Example 145, N-{[(1r,4r)-4-(5-chloro-2H-indazol-2-yl)cyclohexyl]methyl}-2,5-difluoro-4-hydroxybenzamide, trifluoroacetate salt] | 260 nM | 18 nM
21 | Cn1nc(-c2noc([C@]34CC[C@](CNC(=O)c5cc(F)c(O)c(F)c5)(CC3)CC4)n2)ccc1=O [Example 146, 3,5-difluoro-4-hydroxy-N-({4-[3-(1-methyl-6-oxo-1,6-dihydro-pyridazin-3-yl)-1,2,4-oxadiazol-5-yl]bicyclo[2.2.2]octan-1-yl}methyl) benzamide] | 290 nM | 5.6 nM
22 | O=C(NC[C@H]1CC[C@H](n2cc3cc(C(F)(F)F)ncc3n2)CC1)c1cc(F)c(O)c(F)c1 [Example 147, 3,5-difluoro-4-hydroxy-N-({(1r,4r)-4-[5-(trifluoromethyl)-2H-pyrazolo[3,4-c]pyridin-2-yl]cyclohexyl}methyl) benzamide, ammonium salt] | 430 nM | 17 nM
23 | CCn1cc(-c2ccc3cn([C@H]4CC[C@H](CNC(=O)c5cc(F)c(O)c(F)c5F)CC4)nc3c2)cn1 [Example 150, N-({(1r,4r)-4-[6-(1-ethyl-1H-pyrazol-4-yl)-2H-indazol-2-yl]cyclohexyl}methyl)-2,3,5-trifluoro-4-hydroxybenzamide, trifluoroacetate salt] | 120 nM | 4.8 nM
24 | COc1cnc(-c2noc([C@]34CC[C@](CNC(=O)c5cc(F)c(O)c(F)c5F)(CC3)CC4)n2)cn1 [Example 151, 2,3,5-trifluoro-4-hydroxy-N-({4-[3-(5-methoxypyrazin-2-yl)-1,2,4-oxadiazol-5-yl]bicyclo[2.2.2]octan-1-yl}methyl) benzamide] | 170 nM | 8.2 nM
25 | COc1cnc(-c2noc([C@]34CC[C@](CNC(=O)c5cc(F)c(O)c(F)c5)(CC3)CC4)n2)cn1 [Example 152, 3,5-difluoro-4-hydroxy-N-({4-[3-(5-methoxypyrazin-2-yl)-1,2,4-oxadiazol-5-yl]bicyclo[2.2.2]octan-1-yl}methyl)benzamide] | 140 nM | 10 nM
26 | O=C(NC[C@H]1CC[C@H](c2noc(-c3cc4ccccn4n3)n2)CC1)c1cc(F)c(O)c(F)c1 [Example 176, 3,5-difluoro-4-hydroxy-N-({(1r,4r)-4-[5-(pyrazolo[1,5-a]pyridin-2-yl)-1,2,4-oxadiazol-3-yl]cyclohexyl}methyl) benzamide] | 190 nM | 11 nM
27 | O=C(NC[C@]12CC[C@](c3nc(-c4cnc(C(F)(F)F)cn4)no3)(CC1)CC2)c1ccc(O)c(F)c1F [Example 177, 2,3-difluoro-4-hydroxy-N-[(4-{3-[5-(trifluoromethyl)pyrazin-2-yl]-1,2,4-oxadiazol-5-yl}bicyclo[2.2.2]octan-1-yl)methyl]benzamide] | 370 nM | 17 nM
